Reference: patent US5010107A, “Method and composition for achieving anticarcinogenic activity” (priority 1989, dated 1991)
Like-named read-outs stand apart in the source and are kept apart here.

Assays:
β-glucuronidase = conditions: cells, blood, cited from earlier work
[1] = cited from earlier work
carcinogenesis = conditions: higher doses of CGT; cited from earlier work
[2] = system: 7,12-dimethylbenz(a)anthracene-induced mammary tumors; assay: DMBA-induced mammary tumor formation in rats fed CGT, HPR or both; type: in vivo, female Sprague Dawley rats; conditions: for Rats with tumors / Total No. tumors: 20 rats
Procedure: They were maintained on the diets for approximately 4 mos., and were examined (palpated) for mammary tumors weekly. […] The retinoid (HPR) was first dissolved in 25 ml of a vehicle consisting of ethanol-tricaprylin-6% α-tocopherol, then thoroughly mixed with powdered rat chow.

[3] = system: 7,12-dimethylbenz(a)anthracene-induced mammary tumorigenesis; conditions: cited from earlier work
[4] = system: established DMBA-induced mammary tumors; assay: Growth of established DMBA-induced mammary tumors; type: in vivo, female Sprague Dawley rats; conditions: 2 mmol/kg diet; within 5 to 10 days
Procedure: (§1) When higher doses (2 mmol/kg diet) of HPR were used, growth arrest was followed within 5 to 10 days by 30% regression of the DMBA-induced mammary tumors. Also, HPR (0.1 uM) inhibited the […] growth of the human breast cancer cell line (MCF-7) to 50% of the control within 7 days.

[5] = system: cellular cAMP (cyclic AMP) and histone kinases; conditions: cited from earlier work
[6] = system: established mammary tumors; assay: Growth of established mammary tumors in CD8 F1 mice; type: in vivo
Procedure: as §1

For 2,4-di-O-acetyl-D-glucaro-1,4-lactone, the “inhibition of β-glucuronidase” value (β-glucuronidase; urine, intestine and liver) is given as “effective as inhibitors of β-glucuronidase” and the “release of D-glucaro-1,4-lactone (GL) when fed” value (“release of D-glucaro-1,4-lactone” for short) ([1]; in vivo) is given as “slowly release D-glucaro-1,4-lactone (GL)”.

For `O=C([O-])[C@@H](O)[C@@H](O)[C@H](O)[C@@H](O)C(=O)[O-].[Ca+2]` [CGT, calcium glucarate], the “inhibition of β-glucuronidase” value (β-glucuronidase; urine, intestine and liver) is listed as “effective as inhibitors of β-glucuronidase”, the “effectiveness against lung, colon and mammary carcinogenesis” value (carcinogenesis) is listed as “effective against lung, colon and mammary carcinogenesis” and the “inhibition of tumor incidence” value ([2]; 1.0% CGT alone) is listed as 20%. For the same compound, the inhibition of tumors/rat ([2]; 1.0% CGT alone) was 9%, the “Tumor Incidence” value ([2]; 1% CGT in chow diet) was 55 and the Tumors per rat ([2]; 1% CGT in chow diet) was 1.0. The Rats with tumors ([2]; 1% CGT in chow diet) was 11, the “Total No. tumors” value ([2]; 1% CGT in chow diet) was 20 and the “Tumor Incidence” value ([2]; 2% CGT in chow diet) was 55. For the same compound, the Tumors per rat ([2]; 2% CGT in chow diet) was 1.0, the Rats with tumors ([2]; 2% CGT in chow diet) was 11 and the “Total No. tumors” value ([2]; 2% CGT in chow diet) was 20. The “Tumor Incidence” value ([2]; 4% CGT in chow diet) was 35, the Tumors per rat ([2]; 4% CGT in chow diet) was 0.5 and the Rats with tumors ([2]; 4% CGT in chow diet) was 7. For the same compound, the “Total No. tumors” value ([2]; 4% CGT in chow diet) was 10, the “tumor induction relative to controls” value ([3]; 4% CGT diet, started two weeks after carcinogen, by 28 weeks) was 30% and the “food consumption and weight gain” value ([3]; CGT-supplemented diet vs normal chow diet) was “ate quantities of food and had weight gain identical to those on the normal chow diet”. The “steady-state level of sex hormones” value ([3]; anti-promotional effect of CGT, probable cause) was “reduction in the steady-state level of sex hormones” and the “release of D-glucaro-1,4-lactone” value ([1]; fed) was “slowly release D-glucaro-1,4-lactone (GL)”.

For `O=C(O)[C@@H](O)[C@H]1OC(=O)[C@H](O)[C@H]1O` [GL, D-glucaro-1,4-lactone], the “inhibition of β-glucuronidase” value (β-glucuronidase; urine and intestine) is given as “potent inhibitor of β-glucuronidase”.

For `CC1=C(/C=C/C(C)=C/C=C/C(C)=C/C(=O)Nc2ccc(O)cc2)C(C)(C)CCC1` [HPR, N-(4-hydroxyphenyl)retinamide], the “regression of the DMBA-induced mammary tumors, following growth arrest” value [4] is given as 30%, the “level of cellular cAMP and of histone kinases” value [5] is given as “elevate the level of cellular cAMP (cyclic AMP) and of histone kinases” and the “inhibition of tumor incidence” value ([2]; 0.75 mmol/kg HPR alone) is given as 15%. The inhibition of tumors/rat ([2]; 0.75 mmol/kg HPR alone) was 9%, the Rats with tumors ([2]; 0.75 mmol/kg diet HPR) was 12 and the “inhibition of tumor growth” value [6] was 50%.

For `O=C(O)[C@@H](O)[C@@H](O)[C@H](O)[C@@H](O)C(=O)[O-].[K+]` [potassium hydrogen glucarate], the “inhibition of β-glucuronidase” value (β-glucuronidase; urine, intestine and liver) is given as “effective as inhibitors of β-glucuronidase” and the “release of D-glucaro-1,4-lactone” value ([1]; fed) is given as “slowly release D-glucaro-1,4-lactone (GL)”.
